Measurements: patent publication US8927721B2, “Naphthyridine derivative” (Shionogi & Co., Ltd., priority 2010, dated 2015)
pIC50: −log10 of the molar value.

Columns and labels:
Recombinant human BACE1 = biological target: T1, Recombinant human BACE1 (Homo sapiens, UniProt P56817); assay: Assay of BACE1 inhibitory activity; type: biochemical; conditions: Recombinant human BACE1, 30° C., 3 hours, pH 5.0; read-out: IC50 (50% inhibitory concentration against the enzymatic activity)
T1 construct: purchased R&D Systems
Procedure: 48.5 μL of substrate peptide solution (Biotin-XSEVNLDAEFRHDSGC-Eu: X=ε-amino-n-capronic acid, Eu=Europium cryptate) was added to each well of 96-hole half-area plate (a black plate: Costar), and after addition of 0.5 μl of the compound of the present invention (N,N′-dimethylformamide solution) and 1 μl of Recombinant human BACE1(R&D Systems), the reaction mixture was incubated at 30° C. for 3 hours. The substrate peptide was synthesized by reacting Cryptate TBPCOOH mono SMP (CIS bio international) with Biotin-XSEVNLDAEFRHDSGC (Peptide Institute, Inc.). The final concentrations of the substrate peptide and Recombinant human BACE1 were adjusted to 18 nmol/L and 7.4 nmol/L, respectively, and the reaction was performed in sodium acetate buffer (50 mmol/L sodium acetate, pH 5.0, 0.008% Triton X-100). After the incubation for reaction, 50 μl of 8.0 μg/ml Streptavidin-XL665 (CIS bio international) dissolved in phosphate buffer (150 mmol/L K2HPO4—KH2PO4, pH 7.0, 0.008% Triton X-100, 0.8 mol/L KF) was added to each well and left stand at 30° C. for 1 hour. After then, fluorescence intensity was measured (excitation wavelength: 320 nm, measuring wavelength: 620 nm and 665 nm) using Wallac 1420 multilabel counter (Perkin Elmer life sciences). Enzymatic activity was determined from counting ratio of each wavelength (10,000×Count 665/Count 620) and 50% inhibitory concentration against the enzymatic activity (IC50) was calculated.

CYP1A2 = biological target: T2, CYP1A2 (Homo sapiens, UniProt P05177); assay: CYP inhibition test (CYP1A2); type: in vitro ADME; conditions: pooled human hepatic microsome, 7-ethoxyresorufin O-deethylation
T2 construct: enzyme, pooled human hepatic microsome 0.2 mg protein/mL; from tissue; host or cells: pooled human hepatic microsome
T2 sequence (P05177 1-516): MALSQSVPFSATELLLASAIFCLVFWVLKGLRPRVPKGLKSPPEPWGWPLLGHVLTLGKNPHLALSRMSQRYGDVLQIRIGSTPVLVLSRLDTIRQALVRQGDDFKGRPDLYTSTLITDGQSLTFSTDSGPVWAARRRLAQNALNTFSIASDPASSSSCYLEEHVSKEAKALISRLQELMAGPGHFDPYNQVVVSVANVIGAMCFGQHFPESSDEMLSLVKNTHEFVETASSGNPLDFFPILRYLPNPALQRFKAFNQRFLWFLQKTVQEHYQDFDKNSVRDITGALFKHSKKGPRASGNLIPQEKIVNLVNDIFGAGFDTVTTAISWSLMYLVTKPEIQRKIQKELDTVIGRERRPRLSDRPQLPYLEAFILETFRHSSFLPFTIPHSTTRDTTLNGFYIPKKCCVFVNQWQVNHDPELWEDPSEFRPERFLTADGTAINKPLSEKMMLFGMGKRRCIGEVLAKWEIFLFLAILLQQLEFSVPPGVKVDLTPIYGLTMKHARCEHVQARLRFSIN
Description: (§1) Using commercially available pooled human hepatic microsome, and employing, as markers, 7-ethoxyresorufin O-deethylation (CYP1A2), tolbutamide methyl-hydroxylation (CYP2C9), mephenyloin 4′-hydroxylation (CYP2C19), dextromethorphan O-demethylation (CYP2D6), and terfenedine hydroxylation (CYP3A4) as typical substrate metabolism reactions of human main five CYP enzyme forms (CYP1A2, 2C9, 2C19, 2D6, 3A4), an inhibitory degree of each metabolite production amount by a compound of the present invention was assessed. […] After the centrifugation at 3000 rpm for 15 minutes, resorufin (CYP1A2 metabolite) in the supernatant was quantified by a multi-label counter and hydroxytolbutamide (CYP2C9 metabolite), 4′-hydroxymephenyloin (CYP2C19 metabolite), dextrorphan (CYP2D6 metabolite), and terfenadine alcohol metabolite (CYP3A4 metabolite) were quantified by LC/MS/MS. Addition of only DMSO being a solvent dissolving a compound to a reaction system was adopted as a control (100%), remaining activity (%) was calculated and IC50 was calculated by reverse presumption by a logistic model using a concentration and an inhibition rate.

CYP2C9 = biological target: T3, CYP2C9 (Homo sapiens, UniProt P11712); assay: CYP inhibition test (CYP2C9); type: in vitro ADME; conditions: pooled human hepatic microsome, tolbutamide methyl-hydroxylation
T3 construct: enzyme, pooled human hepatic microsome 0.2 mg protein/mL; from tissue; host or cells: pooled human hepatic microsome
Description: as §1

CYP2C19 = biological target: T4, CYP2C19 (Homo sapiens, UniProt P33261); assay: CYP inhibition test (CYP2C19); type: in vitro ADME; conditions: pooled human hepatic microsome, mephenyloin 4′-hydroxylation
T4 construct: enzyme, pooled human hepatic microsome 0.2 mg protein/mL; from tissue; host or cells: pooled human hepatic microsome
Description: as §1

CYP2D6 = biological target: T5, CYP2D6 (Homo sapiens, UniProt P10635); assay: CYP inhibition test (CYP2D6); type: in vitro ADME; conditions: pooled human hepatic microsome, dextromethorphan O-demethylation
T5 construct: enzyme, pooled human hepatic microsome 0.2 mg protein/mL; from tissue; host or cells: pooled human hepatic microsome
Description: as §1

CYP3A4 = CYP3A4 (Homo sapiens, UniProt P08684); assay: CYP inhibition test (CYP3A4); type: in vitro ADME; set-up: enzyme, pooled human hepatic microsome 0.2 mg protein/mL; from tissue; host or cells: pooled human hepatic microsome; conditions: pooled human hepatic microsome, terfenedine hydroxylation
Description: as §1

[1] = Metabolism stability test; type: in vitro ADME; conditions: human liver microsomes 0.5 mg protein/mL, 37° C., 30 minutes, NADPH
Procedure: Using a commercially available pooled human hepatic microsomes, a compound of the present invention is reacted for a constant time, a remaining rate is calculated by comparing a reacted sample and an unreacted sample, thereby, a degree of metabolism in liver of the compound of the present invention is assessed.
A reaction is performed (oxidative reaction) at 37° C. for 0 minute or 30 minutes in the presence of 1 mmol/L NADPH in 0.2 mL of a buffer (50 mmol/L Tris-HCl pH 7.4, 150 mmol/L potassium chloride, 10 mmol/L magnesium chloride) containing 0.5 mg protein/mL of human liver microsomes. After the reaction, 50 μL of the reaction solution is added to 100 μL of a methanol/acetonitrile=1/1 (v/v), mixed and centrifuged at 3000 rpm for 15 minutes. The compound of the present invention in the supernatant is quantified by LC/MS/MS, and a remaining amount of the compound of the present invention after the reaction is calculated, letting a compound amount at 0 minute reaction time to be 100%.

T1 sequence (P56817 46-501): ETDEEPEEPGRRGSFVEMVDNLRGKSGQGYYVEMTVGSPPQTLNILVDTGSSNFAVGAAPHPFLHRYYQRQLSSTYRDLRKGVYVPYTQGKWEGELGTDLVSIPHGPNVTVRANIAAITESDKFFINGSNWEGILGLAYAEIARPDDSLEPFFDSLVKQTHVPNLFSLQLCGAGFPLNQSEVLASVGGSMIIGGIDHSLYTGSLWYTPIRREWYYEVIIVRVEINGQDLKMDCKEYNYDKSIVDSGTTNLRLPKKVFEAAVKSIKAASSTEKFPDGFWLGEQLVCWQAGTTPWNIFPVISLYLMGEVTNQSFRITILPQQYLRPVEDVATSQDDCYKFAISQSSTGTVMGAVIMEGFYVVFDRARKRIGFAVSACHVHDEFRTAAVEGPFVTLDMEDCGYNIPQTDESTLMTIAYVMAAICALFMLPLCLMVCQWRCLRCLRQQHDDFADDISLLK
T4 sequence (P33261 whole entry): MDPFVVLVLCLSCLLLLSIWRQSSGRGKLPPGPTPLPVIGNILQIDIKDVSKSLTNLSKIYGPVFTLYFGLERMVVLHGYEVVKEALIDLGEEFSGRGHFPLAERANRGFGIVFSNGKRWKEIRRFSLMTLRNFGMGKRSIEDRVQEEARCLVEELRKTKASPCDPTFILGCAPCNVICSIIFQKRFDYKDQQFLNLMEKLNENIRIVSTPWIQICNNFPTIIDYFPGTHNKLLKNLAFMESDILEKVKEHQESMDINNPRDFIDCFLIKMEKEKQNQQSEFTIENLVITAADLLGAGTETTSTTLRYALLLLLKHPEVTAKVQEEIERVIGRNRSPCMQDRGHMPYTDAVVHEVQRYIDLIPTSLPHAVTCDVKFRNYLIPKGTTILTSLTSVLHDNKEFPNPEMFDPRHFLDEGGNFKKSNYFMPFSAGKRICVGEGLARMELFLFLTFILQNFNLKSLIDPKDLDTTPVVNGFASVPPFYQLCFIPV
Chain of CYP3A4 (P08684 whole entry): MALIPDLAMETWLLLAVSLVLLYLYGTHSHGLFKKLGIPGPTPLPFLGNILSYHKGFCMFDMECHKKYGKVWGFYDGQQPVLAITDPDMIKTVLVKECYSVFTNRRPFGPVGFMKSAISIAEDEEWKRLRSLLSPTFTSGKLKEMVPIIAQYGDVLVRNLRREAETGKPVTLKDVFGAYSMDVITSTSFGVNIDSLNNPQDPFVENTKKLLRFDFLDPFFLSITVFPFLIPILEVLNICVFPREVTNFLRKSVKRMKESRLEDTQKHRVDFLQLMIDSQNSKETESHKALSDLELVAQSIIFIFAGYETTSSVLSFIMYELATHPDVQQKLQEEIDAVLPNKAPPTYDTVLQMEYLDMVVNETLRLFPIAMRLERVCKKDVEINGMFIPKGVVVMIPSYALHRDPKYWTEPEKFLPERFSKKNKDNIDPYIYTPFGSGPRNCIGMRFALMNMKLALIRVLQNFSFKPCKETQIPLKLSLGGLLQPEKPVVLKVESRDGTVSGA
T5 sequence (P10635 whole entry): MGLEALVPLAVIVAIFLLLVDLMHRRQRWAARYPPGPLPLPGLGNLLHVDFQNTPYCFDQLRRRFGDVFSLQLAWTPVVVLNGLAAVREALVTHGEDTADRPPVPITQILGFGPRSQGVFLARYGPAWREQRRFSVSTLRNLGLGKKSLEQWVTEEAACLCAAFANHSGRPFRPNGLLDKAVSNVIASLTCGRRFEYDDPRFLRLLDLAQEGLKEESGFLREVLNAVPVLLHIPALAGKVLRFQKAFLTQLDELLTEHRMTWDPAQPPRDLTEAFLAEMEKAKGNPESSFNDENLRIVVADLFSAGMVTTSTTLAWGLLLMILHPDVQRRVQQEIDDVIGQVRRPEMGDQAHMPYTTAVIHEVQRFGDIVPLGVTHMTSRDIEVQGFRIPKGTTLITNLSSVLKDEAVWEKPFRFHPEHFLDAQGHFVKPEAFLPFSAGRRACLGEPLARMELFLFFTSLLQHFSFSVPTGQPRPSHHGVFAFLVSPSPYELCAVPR
T3 sequence (P11712 whole entry): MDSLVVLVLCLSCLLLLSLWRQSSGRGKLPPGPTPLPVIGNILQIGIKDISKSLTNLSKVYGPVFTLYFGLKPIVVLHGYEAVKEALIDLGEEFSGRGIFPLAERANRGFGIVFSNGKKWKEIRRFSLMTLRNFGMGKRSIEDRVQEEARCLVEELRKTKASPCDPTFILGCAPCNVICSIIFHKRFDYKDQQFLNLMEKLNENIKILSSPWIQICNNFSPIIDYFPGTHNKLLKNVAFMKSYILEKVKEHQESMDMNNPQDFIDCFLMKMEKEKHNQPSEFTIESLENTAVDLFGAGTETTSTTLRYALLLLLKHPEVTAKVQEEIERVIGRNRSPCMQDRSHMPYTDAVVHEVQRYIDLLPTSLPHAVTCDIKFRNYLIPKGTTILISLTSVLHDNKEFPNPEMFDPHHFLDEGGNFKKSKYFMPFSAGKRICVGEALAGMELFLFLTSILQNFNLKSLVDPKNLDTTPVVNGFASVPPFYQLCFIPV

| SMILES | pIC50 (Recombinant human BACE1) | pIC50 (CYP1A2) | pIC50 (CYP2C9) | pIC50 (CYP2C19) | pIC50 (CYP2D6) | pIC50 (CYP3A4) | remaining amount after the reaction [1] [%] |
| --- | --- | --- | --- | --- | --- | --- | --- |
| CC1(c2cc(NC(=O)c3ncc(F)cc3F)ccc2F)Cc2ccncc2C(N)=N1 (centres unmarked) [Compound I-2] | ≥ 6.00 | < 4.70 | < 4.70 | < 4.70 | < 4.70 | < 4.70 |  |
| CC1(c2cc(NC(=O)c3ccc(C#N)cn3)ccc2F)Cc2cnccc2C(N)=N1 (centres unmarked) [Compound I-5] | ≥ 6.00 |  |  |  |  |  | 88 |
